Consider two compounds from patent publication EP1353624B1, “PHARMACEUTICAL COMPOSITIONS OF A NON-ENTERIC COATED PROTON PUMP INHIBITOR WITH A CARBONATE SALT AND BICARBONATE SALT COMBINATION” (TAP Pharmaceutical Products, Inc., priority 2000, dated 2002).

The text on data set [1]:
To quantify the gas produced by the neutralization of simulated gastric fluid (SGF) by carbicarb and by sodium bicarbonate in vitro, a standard CO2 assay technique was utilized (see USP 24 -NF 19 Beta, The United States Pharmacopeia 2000, p. 306)
(§1) Aqueous solutions to be tested were made up from starting materials sodium carbonate, (anhydrous, available from Mallinckrodt) and sodium bicarbonate (available from Mallinckrodt). An 8.4% sodium bicarbonate solution and an 8.4% carbicarb solution (containing equimolar amounts of sodium bicarbonate and sodium carbonate) were tested as follows.
The specimen gas was generated by reacting either 450 mL simulated gastric fluid (SGF) with 50 mL of the carbicarb solution; or by reacting 45 ml of simulated gastric fluid with 5 ml of sodium bicarbonate solution in a 500 mL Erlenmeyer flask.
To make Simulated Gastric Fluid (SGF) 1 g sodium chloride was transferred to a 500-mL volumetric flask. After adding 1.6 g pepsin, 25 mL 2 N hydrochloric acid was added and swirled to mix. The resultant solution could then be diluted to the appropriate volume with water.
The amount of gas generated in a twenty-minute time period was measured in an Orsat Glass Vapor Absorption Apparatus, by the standard assay technique. Two tests were run for each solution. The volume of CO2 generated was calculated from the difference in the initial volume of gas produced (ml) and the final volume of gas remaining (ml).

The conditions of data set [2]: 50 mL SGF. Here is the method:
To determine and compare the gastric acid neutralizing capacity of sodium bicarbonate solution to carbicarb solution, the following experiment was performed.
as §1
50 mL simulated gastric fluid (SGF, prepared according to the procedure described in Example 1) was pipetted into an Erlenmeyer flask. Four drops of methyl red, then four drops of phenolphthalein were then added to the flask. The pH of solution was monitored with a pH electrode. The solution to be tested was added to a 5-mL buret. The gastric media in the flask was then titrated with the test solution to an endpoint within 0.2 pH units of pH 6.5 (as indicated by the color change and pH reading). Then, titration was resumed, to an endpoint within 0.2 pH units of pH 8.0 (as indicated by the color change and pH reading).

Data set [3] is described as follows: Stability of lansoprazole in simulated gastric fluid (chromatographic assay). It counts as physicochemical. Conditions: for % labeled amount of lansoprazole remaining: room temperature; for drug degraded: at 60 minutes in SGF. As for the experimental part:
Lansoprazole degrades in acid and is stable in base. This study was performed to determine 1) how quickly lansoprazole degrades in simulated gastric fluid (SGF); and 2) whether a high pH-buffering agent (carbicarb which is an equimolar mixture of sodium carbonate and sodium bicarbonate) could be used to retard the degradation of lansoprazole in SGF. All the experiments were conducted at room temperature (22°C ± 2°C).
The PPI test sample included lansoprazole (30 mg); mannitol (60 mg), meglumine (30 mg) and sodium hydroxide (3 mg).
Then 5.0 mL 2 N sodium hydroxide solution was added to the 0-minutes beaker with mixing. To each of the 5 remaining beakers, 10.0 mL of 8.4% carbicarb solution was added and stirred to mix. At the appropriate time interval (corresponding to the individual beaker numbers), 5.0 mL 2 N sodium hydroxide solution was added to stop the reaction. A portion of the resulting solution was diluted with pH 10 diluent. 10 µL of the resulting solution was then injected into the chromatographic system for assay.
Granular formulations of lansoprazole, including carbicarb were also made and tested. The stability of the granular formulations was tested according to the procedure of Example 3. The granular formulations of lansoprazole for this example were prepared as follows.
The coherent mass containing lansoprazole, carbicarb, lactose and sucrose solution was prepared as described above, in Example 3. This coherent mass was passed through a 20-mesh screen and the resulting granules were dried at 50°C for 12 hours. Granules containing 30-mg lansoprazole were transferred to an amber color container along with and an equal weight of flavor granules. 10 ml of water ((HPLC grade, Fisher Scientific, Pittsburgh, PA) was added to the container with gentle shaking to reconstitute the suspension. The resulting suspension of Lansoprazole was tested for stability in simulated gastric fluid as described earlier in Experiment 3.

Data set [4] is described as follows: Storage stability of granules (potency and related substances). Particulars: granules of Examples 4 and 5; 22°C for 21 days in closed containers. It counts as physicochemical. As for the experimental part: Additionally, the granules prepared in Examples 4 and 5 were kept at 22°C for 21 days in closed containers.
[5] abbreviates: 45 mL SGF and 5 mL test solution, gas generated in twenty minutes.
[6] abbreviates: 450 mL SGF and 50 mL test solution, ten-fold scale-up of the 45 mL/5 mL run.

Molecules are shown by their SMILES. “And” between values parts separate entries of the source, which are not always exact repeats. Equal values may be shown once. Read-outs that look alike come from different tables or passages of the source.

With `O=C([O-])O.[Na+]` [8.4% sodium bicarbonate solution, sodium bicarbonate], the “Volume of CO2” value in data set [1] (45 mL SGF and 5 mL test solution, difference of initial and residual gas volume) was 2.9 mL and 5.3 mL; in data set [1] (setting [6]), 29.0 mL and 53.0 mL. Also, the “Initial Gas Volume” value is 93.0 mL and 82.0 mL in data set [1] (setting [5]); 930.0 mL and 820.0 mL in data set [1] (setting [6]). For the same compound, the “Residual Gas Volume” value was 90.1 mL and 76.7 mL in data set [1] (setting [5]); 901.0 mL and 767.0 mL in data set [1] (setting [6]). The “Volume of Acid Neutralizer Solution Required” value in data set [2] (pH of simulated gastric fluid after adding neutralizer 1.2) is 0 mL; in data set [2] (pH of simulated gastric fluid after adding neutralizer 2.0) it was 3.47 mL; in data set [2] (pH of simulated gastric fluid after adding neutralizer 3.0) it was 4.09 mL; in data set [2] (pH of simulated gastric fluid after adding neutralizer 4.0), 4.19 mL; in data set [2] (pH of simulated gastric fluid after adding neutralizer 5.0), 4.27 mL; in data set [2] (pH of simulated gastric fluid after adding neutralizer 6.0), 4.48 mL. For the same compound, the entries for the “Volume of Acid Neutralizer Solution Required” value in data set [2] (pH of simulated gastric fluid after adding neutralizer 7.0) and in data set [2] (pH of simulated gastric fluid after adding neutralizer 8.0) were 5.00 mL and 6.20 mL, respectively. Also, the “volume added into the gastric media to reach the endpoint” value in data set [2] (titration endpoint (pH not given; method: pH 6.5, then pH 8.0)) is given as 4.71 mL.

Take `Cc1c(OCC(F)(F)F)ccnc1C[S+]([O-])c1nc2ccccc2[nH]1` (stereo not shown) [lansoprazole]: the “% labeled amount of lansoprazole remaining” value in data set [3] (Sample in carbicarb solution, time in SGF 0 minutes) is reported as 98.0%; in data set [3] (Sample in carbicarb solution, time in SGF 5 minutes), 96.7%; in data set [3] (Sample in carbicarb solution, time in SGF 15 minutes) it was 97.4%; in data set [3] (Sample in carbicarb solution, time in SGF 30 minutes), 95.8%; in data set [3] (Sample in carbicarb solution, time in SGF 45 minutes), 94.4%; in data set [3] (Sample in carbicarb solution, time in SGF 60 minutes), 96.5%. The “% labeled amount of lansoprazole remaining” value in data set [3] (Sample in water, time in SGF 0 minutes) is 99.5%; in data set [3] (Sample in water, time in SGF 5 minutes), 39.9%; in data set [3] (Sample in water, time in SGF 15 minutes), 10.1%; in data set [3] (Sample in water, time in SGF 30 minutes), 4.1%; in data set [3] (Sample in water, time in SGF 45 minutes), 2.7%; in data set [3] (Sample in water, time in SGF 60 minutes), 2.0%. For the same compound, the “time stable in simulated gastric fluid” value in data set [3] (administered with carbicarb into SGF), in data set [3] (formulated with carbicarb as granules (Example 4)) and in data set [3] (suspension reconstituted from lansoprazole/carbicarb granules (Example 5)) was “at least 60 minutes” throughout. The degradation in data set [3] (administered with carbicarb into SGF, 60 minutes) is on record as less than 5%. In addition, the drug degraded was 3.5% in data set [3] (drug constituted with carbicarb solution) and 98% in data set [3] (drug reconstituted with water). Also, the “stability on storage (potency and related substances)” value in data set [4] is reported as “stable”.
